Test results from patent US7172889B2, “Biological compositions and methods for treatment of cervical cancer” (Ultra Biotech Limited, priority 2003, dated 2007).

Legend:
[1] = tested on: cervical cancer cell line U14; assay: Survival of mice of the 615 strain transplanted with cervical cancer cell line U14 (Example 7); assay type: in vivo; conditions: for Number of live animals remaining in the groups after 30 days of treatment: 30 mice per group, 2AY/2NY 0.5 ml oral per day, 2MMC 1.2 mg/kg/day s.c.
Method: The following example illustrates the benefit of a biological composition of the invention in a model of human cervical cancer in mice from the 615 strain. The survival time of mice after tumor injection and treatment was studied.
(§1) The biological composition comprising 10^8 cells per ml of activated and conditioned yeast cells of the strain Saccharomyces carlsbergensis Hansen strain AS2.444 was prepared by the methods described in Section 5.1 and subsections therein.
The animals were prepared in a similar manner as described in Section 6.1.
(§2) The mice injected with tumor cells were immediately divided into 4 experimental groups of ten mice per group and one control group. The four experimental groups were triplicated (i.e., using a total of 120 mice in the experimental groups). In group 2AY, the mice received 0.5 ml of the biological composition once per day. In group 2NY, the mice received 0.5 ml of the untreated yeast cells once per day. In group 2MMC, the mice were injected subcutaneously with 1.2 mg of mitomycin C (MMC) per kg body weight per day. In group 2CK1, the mice received 0.5 ml of physiological saline once per day.
(§3) The mice received the biological composition, untreated yeast cells, MMC or saline on the same day as the tumor cells were transplanted. The mice in group 2CK2 also started receiving saline on the same day as the other four groups. The biological composition, untreated yeast cells and saline were administered orally by a feeding tube and the MMC by subcutaneous injection for 30 consecutive days. The mice were observed over 6 months from the day of tumor inoculation and survival was recorded. The weight of the mice and the weight of the tumor were determined by standard techniques.

[2] = tested on: cervical cancer cell line U14; assay: Tumor growth in mice of the 615 strain transplanted with cervical cancer cell line U14 (Example 6); assay type: in vivo, mice from the 615 strain; conditions: U14 tumor-bearing 615 mice, 30 consecutive days of treatment, sacrificed on 31st day; AY/NY 0.3 ml oral once per day, MMC 0.8 mg/kg/day s.c.
From the text: The following example illustrates the benefit of a biological composition of the invention in a model of human cervical cancer in mice from the 615 strain. The growth of the tumor in the mice was studied.
(§4) The cervical cancer cell line U14 was used in the model which closely resembles the human cervical cancer pathology. Detailed description of the use of cervical cancer cell line U14 can be found in Tao G. et al., 2001, Chin Med J. 114(6):623–7, which is incorporated herein by reference in its entirety.
as §1
The animals used to generate the cervical cancer cells for the experiments were female mice from the 615 strain (obtainable from the Chinese Academy of Military Medical Sciences, Beijing, China) having an average body weight of 20 to 22 gram and 4 to 6 months old. […]
The mice received the biological composition, untreated yeast cells, MMC or saline on the same day as the tumor cells were transplanted. […] The weight of the mice and the weight of the tumor were determined by standard techniques.

[3] = tested on: cervical cancer cell line U27; assay: Tumor growth in kun ming mice transplanted with cervical cancer cell line U27 (Example 8); assay type: in vivo, kun ming mouse; conditions: U27 tumor-bearing kun ming mice, 30 consecutive days of treatment, sacrificed on 31st day; AY/NY 0.3 ml oral once per day, VCR 3 mg/kg/day i.v.
From the text: The following example illustrates the benefit of a biological composition of the invention in a kun ming mouse model of human cervical cancer. The growth of the tumor in the mice was studied.
as §4, with “U27” for “U14”, “Qian S. S.” for “Tao G.”, “1987, Zhongguo Yi Xue Ke Xue Yuan Xue Bao 9(1):33–7,” for “2001, Chin Med J. 114(6):623–7,”
as §1
The animals used to generate the cervical cancer cells for the experiments were female kun ming mouse (obtainable from the Chinese Academy of Military Medical Sciences, Beijing, China) having an average body weight of 20 to 22 gram and 5 to 6 months old. […]
The mice received the biological composition, untreated yeast cells, VCR or saline on the same day as the tumor cells were transplanted. […] The weight of the mice and the weight of the tumor were determined by standard techniques.

[4] = tested on: cervical cancer cell line U27; assay: Survival of kun ming mice transplanted with cervical cancer cell line U27 (Example 9); assay type: in vivo; conditions: for Number of live animals remaining in the groups after 30 days of treatment: 30 mice per group, 2AY/2NY 0.5 ml oral per day, 2VCR 4.5 mg/kg/day i.v.
Method: The following example illustrates the benefit of a biological composition of the invention in a kun ming mouse model of human cervical cancer. The survival time of mice after tumor injection and treatment was studied.
as §1
The animals were prepared in a similar manner as described in Section 8.1.
as §2, with “2VCR,” for “2MMC,”, “intravenously” for “subcutaneously”, “4.5” for “1.2”, “[…] (VCR)” for “mitomycin C (MMC)”
as §3, with “VCR” for “MMC”, “intravenous” for “subcutaneous”

[5] = 0 month after cessation of treatment
[6] = 1 month after cessation of treatment
[7] = 2 months after cessation of treatment
[8] = 3 months after cessation of treatment
[9] = 4 months after cessation of treatment
[10] = 5 months after cessation of treatment
[11] = 6 months after cessation of treatment
[12] = surviving mice after 6 months observation, U14, 615 mice, 0.5 ml oral per day (2MMC 1.2 mg/kg/day s.c.) for 30 days
[13] = surviving mice after 6 months observation, U27, kun ming mice, 0.5 ml oral per day (2VCR 4.5 mg/kg/day i.v.) for 30 days

For `CO[C@@]12[C@H](COC(N)=O)C3=C(C(=O)C(C)=C(N)C3=O)N1C[C@@H]1N[C@@H]12` [MMC, mitomycin C], the “Number of live animals remaining in the groups after 30 days of treatment” value (shortened to “Number of live animals remaining”) [1, 5] was 30, the “Number of live animals remaining” value [1, 6] was 30 and the “Number of live animals remaining” value [1, 7] was 24. The “Number of live animals remaining” value [1, 8] was 13, the “Number of live animals remaining” value [1, 9] was 0 and the “Number of live animals remaining” value [1, 10] was 0. For the same compound, the “Number of live animals remaining” value [1, 11] was 0, the “death during the experiment” value ([1]; observed over 6 months, 2NY 0.5 ml per day, 2MMC 1.2 mg/kg/day) was “all died during the experiment” and the “mean weight of mice and standard deviation” value [1, 12] was “all animals dead”. For the same compound, the “mean weight of tumor nodules and standard deviation” value [1, 12] was “all animals dead”, the “mean weight of mice and standard deviation” value [2] was 19.3 ± 3.3 g and the “mean weight of tumor nodules and standard deviation” value [2] was 4.4 ± 2.23 mg.

With `CC[C@]1(O)C[C@@H]2CN(CCc3c([nH]c4ccccc34)[C@@](C(=O)OC)(c3cc4c(cc3OC)N(C)[C@H]3[C@@](O)(C(=O)OC)[C@H](OC(C)=O)[C@]5(CC)C=CCN6CC[C@]43[C@@H]65)C2)C1` [VCR, vinblastine] the “mean weight of mice and standard deviation” value [3] was 18.5 ± 3.7 g, the “mean weight of tumor nodules and standard deviation” value [3] was 4.77 ± 2.79 g and the “Number of live animals remaining” value [4, 5] was 30. The “Number of live animals remaining” value [4, 6] was 30, the “Number of live animals remaining” value [4, 7] was 22 and the “Number of live animals remaining” value [4, 8] was 17. The “Number of live animals remaining” value [4, 9] was 4, the “Number of live animals remaining” value [4, 10] was 0 and the “Number of live animals remaining” value [4, 11] was 0. For the same compound, the “death during the experiment” value ([4]; observed over 6 months, 2NY 0.5 ml per day, 2VCR 4.5 mg/kg/day) was “all died during the experiment”, the “mean weight of mice and standard deviation” value [4, 13] was “all animals dead” and the “mean weight of tumor nodules and standard deviation” value [4, 13] was “all animals dead”.
